Assay results as given in patent US20150202181A1, “Method of and compounds for the reduction of alcoholic hangover” (priority 2014, published 2015).
Entries after “also recorded” stand apart in the source; their conditions may differ.

What was measured:
rodents = details: cited from earlier work
[1] = system: acetaldehyde toxicity in rodents; details: cited from earlier work
aldehyde dehydrogenase = details: humans; cited from earlier work
[2] = chronic dosing for two years; cited from earlier work
humans = details: cited from earlier work
[3] = system: alcoholic hangover symptoms; assay: Open-label and dose-finding studies in humans drinking alcoholic beverages
[4] = after oral administration; cited from earlier work
[5] = NAC compared with ALA; cited from earlier work

SMILES | LD50 (rodents) [mg/kg] | Protective effect against acetaldehyde toxicity [1] | Effect on aldehyde dehydrogenase activity (aldehyde dehydrogenase) | No-observed-effect level [2] [mg/kg/day] | Tolerability (humans; diabetics given 600 mg/day for four years) | Doses required to decrease alcohol hangover symptoms as monotherapy, compared with the combination [3] | Dose that must be ingested for any noticeable reduction of alcohol hangover symptoms ([3]; monotherapy, ingested prior to imbibing alcoholic beverages) | Oral absorption [4] | LD50 (in words) (rodents) | Relative solubility (water versus fat) [5] | Outcome of high exposure (humans; human child, 8480 mg/kg over 72 hours)
O=C(O)CCCC[C@@H]1CCSS1 [ALA, (R)-(+)-lipoic acid] | > 2000 | same effect | increasing aldehyde dehydrogenase activity | 60 | well-tolerated | much greater doses | at least 200 mg |  |  |  | 
N[C@@H](CS)C(=O)O [L-cysteine] |  |  |  |  |  |  |  | not well-absorbed; also recorded: poorly absorbed |  |  | 
CC(=O)N[C@@H](CS)C(=O)O [NAC, N-acetyl-L-cysteine] |  | robust protective effects |  |  |  | much greater doses |  |  | very high | more water soluble | survived with minor liver dysfunction
